From patent US12053459B2, “CDK2 inhibitors and methods of using the same” (Cedilla Therapeutics, Inc., priority 2021, dated 2024) come the findings set out here.

A value given as a limit tells only on which side of the number the result lay.

One assay deals with Kuramochi cells. Kind of assay: BrdU cell proliferation assay (colorimetric ELISA), Kuramochi cells. In kind it is cell-based. The conditions noted are these: class symbols A-D. As to the method: A BrdU assay was used as a measure of proliferation based on the DNA replication process of proliferating cells. BrdU, a pyrimidine analog, is added to the cell culture and incorporated into the DNA of proliferating cells. The presence of the BrdU analog was then measured through a colorimetric ELISA. After fixation and permeabilization of cells, peroxidase-conjugated antibody recognizing BrdU is added and allowed to incubate, followed by thorough washing to remove unbound antibody. In order to quantify the amount of bound antibody, peroxidase substrate is added and produces a color that can be measured at 450 nm.
On day −1, Kuramochi cells (Sekisui XenoTech JCRB0098) were seeded at 2,000 cells/well in columns 2-12 of a 96 well plate (Corning, CLS3596) in 150 uL media and allowed to adhere overnight at 37 degree with 5% CO2. In order to assess specificity of the compounds, Kuramochi RB^KO cells were also plated and treated, as RB^KO cells were not expected to show a proliferative response to CCNE/CDK specific inhibitors.
On day 0, the source plate was prepared by adding 10 mM compounds and performing 3-fold serial dilutions for a 4-point dose response of each compound. Using a multichannel pipette, 2 uL of the contents of the source plate were stamped into an intermediate plate with 500 uL of RPMI 1640 Media, GlutaMAX Supplement (Life Technologies, 61870127) in each well of a Nunc 96 DeepWell™ plate, non-treated 96 DeepWell plate, 2 mL/well, sterile, natural, 60/cs (Sigma Z717274) and mixed thoroughly. 50 uL from row A of this intermediate plate were added to rows A-H of one plate of previously seeded Kuramochi cells, and each subsequent row of the intermediate plate was added to a full plate of cells.
On day 4, the plates were developed using the BrdU ELISA Cell Proliferation Assay according to manufacturer's instructions (Roche, 11647229001). Briefly, BrdU was diluted 1:100 in Gibco®, Opti-MEM® and 20 μL/well was added, shaken for 10 minutes at 350 rpm, and then returned to the incubator for 1 hour. Following incubation, the medium was discarded, and the cells were fixed by adding 200 μL of Fix/Denature solution. The anti-BrdU peroxidase antibody was diluted 1:1000 in OptiMEM, added at 100 μL/well, and incubated while shaking (350 rpm) for one hour. Three washes with PBS were performed to remove any unbound antibody, followed by the addition of 100 μL of substrate solution to each well. […] was then added to halt the reaction, and plates were read out using an Envision spectrophotometer (Perkin Elmer) set to read 450 nm absorbance. Background absorbance values from empty wells were subtracted from all samples and then normalized to DMSO treated wells.

For the next assay, the target named is CDK2/Cyclin E1(14-475) (Homo sapiens, UniProt P24941). Nature of the assay: Caliper LabChip EZ Reader mobility shift assay, inhibition of CDK2/Cyclin E1 activity. In kind it is biochemical. The conditions noted are these: class symbols A-D. As to the method: Inhibition of CDK2/Cyclin E1 activity in the presence of compounds of the present disclosure was evaluated using a Caliper LabChip® EZ Reader mobility shift assay. In the assay, activated CDK2/Cyclin E1 catalyzes the phosphorylation of a fluorescently tagged peptide 5-FAM-QSPKKG-CONH2 (PerkinElmer, FL Peptide 18) which induces a difference in capillary electrophoresis mobility. The peptide substrate and product were measured, and the conversion ratio was used to determine the inhibition (as % activity and IC50 values) of CDK2/Cyclin E1. Reactions contained 50 mM HEPES pH 7.5, 10 mM MgCl2, 1 mM EDTA, 2 mM DTT, 0.01% Brij35, 0.5 mg/mL BSA, 0.1% DMSO, 2.5 nM CDK2/Cyclin E1(14-475), 100 μM ATP, and 1.5 μM fluorescent peptide substrate.
Dose titrations of inhibitors in 100% DMSO were combined with 3.25 nM CDK2/Cyclin E1(14-475) and 130 μM of ATP in reaction buffer. The mixtures were incubated for 30 minutes before the addition of fluorescent peptide substrate to initiate the kinase reaction. The final conditions were 2.5 nM CDK2/Cyclin E1(14-475), 100 μM ATP, and 1.5 μM fluorescent peptide. The reactions were stopped after 100 minutes with the addition of EDTA (6 mM final EDTA concentration). The stopped reactions were analyzed on a Caliper LabChip® EZ Reader II. The conversion ratios were normalized to yield % activity, plotted against compound concentration, and fit to a four-parameter equation to determine the IC50 for each compound.

As for `CNC(=O)[C@H](CCCc1ccccc1)NC(=O)C1CN(C(=O)Cc2c[nH]c3cc(Cl)ccc23)CC2CN(C(=O)c3ccc4c(c3)CC(=O)N4)CC21` (single isomer, unassigned) [I-22], the IC50 with Kuramochi cells and on CDK2/Cyclin E1(14-475) was above 10 µM in each case.
In the case of `CNC(=O)[C@H](CCCc1ccccc1)NC(=O)C1CN(C(=O)Cc2c[nH]c3cc(Cl)ccc23)CC2CN(C(=O)c3ccc4c(c3)CC(=O)N4)CC21` (single isomer, unassigned) [I-23], the IC50 with Kuramochi cells and on CDK2/Cyclin E1(14-475) was above 10 µM each time.
On to `CNC(=O)[C@H](CCCc1ccccc1)NC(=O)C1CN(C(=O)Cc2c[nH]c3cc(Cl)ccc23)CC2CN(C(=O)c3ccc4c(c3)n(C)c(=O)n4C(C)C)CC21` (single isomer, unassigned) [I-86], for which the IC50 in the assay with Kuramochi cells and at CDK2/Cyclin E1(14-475) was above 10 µM each time.
For the compound `CNC(=O)[C@H](CCCc1ccccc1)NC(=O)C1CN(C(=O)Cc2c[nH]c3cc(Cl)ccc23)CC2CN(C(=O)c3ccc4c(c3)n(C)c(=O)n4C(C)C)CC21` (single isomer, unassigned) [I-87], the IC50 (as a rule, the concentration at which inhibition is half-maximal) with Kuramochi cells was above 10 µM; at CDK2/Cyclin E1(14-475) it was at most 0.5 µM.
For `COc1cc(C(=O)N2CC3CN(C(=O)Cc4c[nH]c5cc(Cl)ccc45)CC(C(=O)NCC(=O)N(C)CCCc4ccccc4)C3C2)ccc1OC(C)C` (single isomer, unassigned) [I-100], in that order: 0.5 to 5 µM and at most 0.5 µM.
Consider `COc1cc(C(=O)N2CC3CN(C(=O)Cc4c[nH]c5cc(Cl)ccc45)CC(C(=O)NCC(=O)N(C)CCCc4ccccc4)C3C2)ccc1OC(C)C` (single isomer, unassigned) [I-101], for which the IC50 in the assay with Kuramochi cells and on CDK2/Cyclin E1(14-475) was above 10 µM throughout.
In the case of `CNC(=O)[C@H](Cc1c[nH]c2ccccc12)NC(=O)C1CN(C(=O)Cc2c[nH]c3cc(Cl)ccc23)CC2CN(C(=O)c3ccc(OC(C)C)c(OC)c3)CC21` (single isomer, unassigned) [I-110], the IC50 in the assay on Kuramochi cells and on CDK2/Cyclin E1(14-475) was above 10 µM in each case.
For the compound `CNC(=O)[C@H](Cc1c[nH]c2ccccc12)NC(=O)C1CN(C(=O)Cc2c[nH]c3cc(Cl)ccc23)CC2CN(C(=O)c3ccc(OC(C)C)c(OC)c3)CC21` (single isomer, unassigned) [I-111], the IC50 with Kuramochi cells was above 10 µM; on CDK2/Cyclin E1(14-475), at most 0.5 µM.
Turning to `COc1cc(C(=O)N2CC3CN(C(=O)Cc4c[nH]c5cc(Cl)ccc45)CC(C(=O)N[C@H]4CCCN(Cc5ccccc5)C4)C3C2)ccc1OC(C)C` (single isomer, unassigned) [I-117], the IC50 with Kuramochi cells is above 10 µM; on CDK2/Cyclin E1(14-475), 0.5 to 5 µM.
For the compound `COc1cc(C(=O)N2CC3CN(C(=O)Cc4c[nH]c5cc(Cl)ccc45)CC(C(=O)N[C@H]4CCCN(Cc5ccccc5)C4)C3C2)ccc1OC(C)C` (single isomer, unassigned) [I-118], the IC50 with Kuramochi cells and at CDK2/Cyclin E1(14-475) was above 10 µM in each case.
Consider `CNC(=O)[C@H](CCCc1cccc(O)c1)NC(=O)C1CN(C(=O)Cc2c[nH]c3cc(Cl)ccc23)CC2CN(C(=O)c3ccc(OC(C)C)c(OC)c3)CC21` (single isomer, unassigned) [I-152], for which the IC50 with Kuramochi cells and on CDK2/Cyclin E1(14-475) was above 10 µM throughout.
On to `CNC(=O)[C@H](CCCc1cccc(O)c1)NC(=O)C1CN(C(=O)Cc2c[nH]c3cc(Cl)ccc23)CC2CN(C(=O)c3ccc(OC(C)C)c(OC)c3)CC21` (single isomer, unassigned) [I-153], for which the results for the IC50 in the assay with Kuramochi cells and at CDK2/Cyclin E1(14-475) were above 10 µM and 0.5 to 5 µM, respectively.
In the assay on Kuramochi cells, `CNC(=O)[C@H](CCCc1ccccc1)NC(=O)C1CN(C(=O)c2cn3ccncc3n2)CC2CN(C(=O)c3ccc(OC(C)C)c(OC)c3)CC21` (single isomer, unassigned) [I-194] had a half-inhibitory concentration (IC50) above 10 µM.
Consider `CNC(=O)[C@H](CCCc1ccccc1)NC(=O)C1CN(C(=O)c2cn3ccncc3n2)CC2CN(C(=O)c3ccc(OC(C)C)c(OC)c3)CC21` (single isomer, unassigned) [I-195], for which the IC50 with Kuramochi cells and on CDK2/Cyclin E1(14-475) was above 10 µM throughout.
With `CNC(=O)[C@H](CCCc1ccccc1)NC(=O)C1CN(C(=O)c2coc(Cl)n2)CC2CN(C(=O)c3ccc(OC(C)C)c(OC)c3)CC21` (single isomer, unassigned) [I-232], the IC50 in the assay with Kuramochi cells and on CDK2/Cyclin E1(14-475) was above 10 µM each time.
With `CNC(=O)[C@H](CCCc1ccccc1)NC(=O)C1CN(C(=O)Cc2c[nH]c3cc(Cl)ccc23)CC2CN(C(=O)c3ccc(O)cc3)CC21` (some centres unmarked) [I-4], on CDK2/Cyclin E1(14-475), the IC50 was above 10 µM.
Take `CNC(=O)[C@H](CCCc1ccccc1)NC(=O)C1CN(C(=O)Cc2c[nH]c3cc(Cl)ccc23)CC2CN(C(=O)c3ccc(OC)c(OC)c3)CC21` (some centres unmarked) [I-33]: the IC50 on CDK2/Cyclin E1(14-475) lay within 5 to 10 µM.
The same measure, in the same setting: under `CNC(=O)[C@H](CCCc1ccccc1)NC(=O)C1CN(C(=O)Cc2c[nH]c3cc(Cl)ccc23)CC2CN(C(=O)c3ccc4ncccc4c3)CC21` (some centres unmarked) [I-36] stands above 10 µM.
`CNC(=O)[C@H](CCCc1ccccc1)NC(=O)C1CN(C(=O)Cc2c[nH]c3cc(Cl)ccc23)CC2CN(C(=O)c3cccc(OC)c3)CC21` (some centres unmarked) [I-49]: the IC50 with Kuramochi cells was above 10 µM.
The same measure, in the same setting: under `CNC(=O)[C@H](CCCc1ccccc1)NC(=O)C1CN(C(=O)Cc2c[nH]c3cc(Cl)ccc23)CC2CN(C(=O)C3CCCCC3)CC21` (some centres unmarked) [I-51] stands above 10 µM.
Same read-out and setting: under `CNC(=O)[C@H](CCCc1ccccc1)NC(=O)C1CN(C(=O)Cc2c[nH]c3cc(Cl)ccc23)CC2CN(C(=O)c3ccc4c(c3)CCO4)CC21` (some centres unmarked) [I-53] stands above 10 µM; under `CNC(=O)[C@H](CCCc1ccccc1)NC(=O)C1CN(C(=O)Cc2c[nH]c3cc(Cl)ccc23)CC2CN(C(=O)c3cccc(-c4cccnc4)c3)CC21` (some centres unmarked) [I-63], above 10 µM.
Same read-out and setting: under `CNC(=O)[C@H](CCCc1ccccc1)NC(=O)C1CN(C(=O)Cc2c[nH]c3cc(Cl)ccc23)CC2CN(C(=O)c3ncc(-c4ccccc4)s3)CC21` (some centres unmarked) [I-68] stands above 10 µM; under `CNC(=O)[C@H](CCCc1ccccc1)NC(=O)C1CN(C(=O)Cc2c[nH]c3cc(Cl)ccc23)CC2CN(C(=O)c3ccc4oc(=O)n(C)c4c3)CC21` (some centres unmarked) [I-76], above 10 µM.
Compound `CNC(=O)[C@H](CCCC(C)(C)C)NC(=O)C1CN(C(=O)Cc2c[nH]c3cc(Cl)ccc23)CC2CN(C(=O)c3ccc(OC(C)C)c(OC)c3)CC21` (some centres unmarked) [I-96] came in with an IC50 with Kuramochi cells above 10 µM.
Regarding `COc1cc(C(=O)N2CC3CN(C(=O)Cc4c[nH]c5cc(Cl)ccc45)CC(C(=O)NCCCCc4ccccc4)C3C2)ccc1OC(C)C` (centres unmarked) [I-119], the IC50 in the assay with Kuramochi cells was above 10 µM.
On the same count and under the same terms, under `CNC(=O)[C@@H](Cc1ccccc1)NC(=O)C1CN(C(=O)Cc2c[nH]c3cc(Cl)ccc23)CC2CN(C(=O)c3ccc(OC(C)C)c(OC)c3)CC21` (some centres unmarked) [I-120] stands above 10 µM; under `CNC(=O)[C@@H](Cc1ccc(O)cc1)NC(=O)C1CN(C(=O)Cc2c[nH]c3cc(Cl)ccc23)CC2CN(C(=O)c3ccc(OC(C)C)c(OC)c3)CC21` (some centres unmarked) [I-121], above 10 µM.
With `CNC(=O)[C@H](CCCc1ccccc1)NC(=O)C1CN(C(=O)Cc2cccnc2)CC2CN(C(=O)c3ccc(OC(C)C)c(OC)c3)CC21` (some centres unmarked) [I-224], at CDK2/Cyclin E1(14-475), the IC50 was above 10 µM.
For `CNC(=O)[C@H](CCCc1ccccc1)NC(=O)C1CN(CCc2c[nH]c3cc(Cl)ccc23)CC2CN(C(=O)c3ccc(OC(C)C)c(OC)c3)CC21` (stereo partly drawn) [I-254, 5-(2-(6-chloro-1H-indol-3-yl)ethyl)-2-(4-isopropoxy-3-methoxybenzoyl)-N—((S)-1-(methylamino)-1-oxo-5-phenylpentan-2-yl)octahydro-1H-pyrrolo[3,4-c]pyridine-7-carboxamide], the IC50 on CDK2/Cyclin E1(14-475) was above 10 µM.
